In patent publication US6653306B1, “Epoxy-steroidal aldosterone antagonist and angiotensin II antagonist combination therapy” (G.D. Searle & Co., priority 1995, dated 2003):

Experiments:
[1] = target: angiotensin II AT1 receptor; test: Assay A: Angiotensin II binding activity (125I-AII displacement, rat uterine membrane preparation)
Experimental: Assay A: Antiotensin II Binding Activity
Compounds of the invention were tested for ability to bind to the smooth muscle angiotensin II receptor using a rat uterine membrane preparation. […] Rat uterine membranes were prepared from fresh tissue. All procedures were carried out at 4° C. Uteri were stripped of fat and homogenized in phosphate-buffered saline at pH 7.4 containing 5 mM EDTA. The homogenate was centrifuged at 1500×g for 20 min., and the supernatant was recentrifuged at 100,000×g for 60 min. The pellet was resuspended in buffer consisting of 2 mM EDTA and 50 mM Tris-HCl (pH 7.5) to a final protein concentration of 4 mg/ml. […] The reaction was initiated by the addition of membrane protein and the mixture was incubated at 25° C. for 60 min. The incubation was terminated with ice-cold 50 mM Tris-HCl (pH 7.5) and the mixture was filtered to separate membrane-bound labelled peptide from the free ligand. The incubation tube and filter were washed with ice-cold buffer. Filters were assayed for radioactivity in a Micromedic gamma counter.
Nonspecific binding was defined as binding in the presence of 10 μM of unlabelled AII. Specific binding was calculated as total binding minus nonspecific binding. […] Binding data were analyzed by a nonlinear least-squares curve fitting program.

[2] = tested on: pressor response to AII; test: Assay C: In vivo intragastric pressor assay response for AII antagonists; parameters: species or system rat; conditions: dose 3 mg/kg, intragastric, or intraduodenal for examples listed; for inhibition at 3 mg/kg: Rattus norvegicus
Experimental: Assay C: In Vivo Intragastric Pressor Assay Response for AII Antagonists
Male Sprague-Dawley rats weighing 225-300 grams were anesthetized with methohexital (30 mg/kg, i.p.) and catheters were implanted into the femoral artery and vein. The catheters were tunneled subcutaneously to exit dorsally, posterior to the head and between the scapulae. The catheters were filled with heparin (1000 units/ml of saline). The rats were returned to their cage and allowed regular rat chow and water ad libitum. After full recovery from surgery (3-4 days), rats were placed in Lucite holders and the arterial line was connected to a pressure transducer. Arterial pressure was recorded on a Gould polygraph (mmHg). Angiotensin II was administered as a 30 ng/kg bolus via the venous catheter delivered in a 50 μl volume with a 0.2 ml saline flush. The pressor response in mm Hg was measured by the differer.-:e from pre-injection arterial pressure to the maximum pressure achieved. The AII injection was repeated every 10 minutes until three consecutive injections yielded responses within 4 mmHg of each other. These three responses were then averaged and represented the control response to AII. The test compound was suspended in 0.5% methylcellulose in water and was administered by gavage. The volume administered was 2 ml/kg body weight. The standard dose was 3 mg/kg. Angiotensin II bolus injections were given at 30, 45, 60, 75, 120, 150, and 180 minutes after gavage. The pressor response to AII was measured at each time point. The rats were then returned to their cage for future testing. A minimum of 3 days was allowed between tests. Percent inhibition was calculated for each time point following gavage by the following formula:
[(Control Response—Response at time point)/Control Response]×100.

SMILES	IC50 [1]	inhibition at 3 mg/kg [2]	Assay C Duration [2]
CCCCCn1cc(CCCC)n(Cc2ccc(-c3ccccc3-c3nnn[nH]3)nc2)c1=O [Compound 199]	10 nM	60%	>180 min
CCCCc1cn(C(C)C)c(=O)n1Cc1ccc(-c2ccccc2-c2nnn[nH]2)nc1 [Compound 200]	20 nM	45%	>180 min
CCCCc1cn(C(C)(C)C)c(=O)n1Cc1ccc(-c2ccccc2-c2nnn[nH]2)nc1 [Compound 201]	17 nM	10%	180 min
CCCCc1cn(CC(C)(C)C)c(=O)n1Cc1ccc(-c2ccccc2-c2nnn[nH]2)nc1 [Compound 202]	12 nM	65%	>180 min
CCCCc1cn(CCC(C)(C)C)c(=O)n1Cc1ccc(-c2ccccc2-c2nnn[nH]2)nc1 [Compound 203]	9.2 nM	50%	>180 min
CCCCc1cn(CC(CC)CC)c(=O)n1Cc1ccc(-c2ccccc2-c2nnn[nH]2)nc1 [Compound 204]	16 nM	75%	>180 min
CCCCc1cn(C2CCCCC2)c(=O)n1Cc1ccc(-c2ccccc2-c2nnn[nH]2)nc1 [Compound 205]	20 nM	40%	>180 min
CCCCc1cn(CCC2CC2)c(=O)n1Cc1ccc(-c2ccccc2-c2nnn[nH]2)nc1 [Compound 206]	5.4 nM	30%	>180 min
CCCCc1cn(CC2CCCC2)c(=O)n1Cc1ccc(-c2ccccc2-c2nnn[nH]2)nc1 [Compound 208]	22 nM	50%	>180 min
CCCCc1cn(CCC2CCCC2)c(=O)n1Cc1ccc(-c2ccccc2-c2nnn[nH]2)nc1 [Compound 211]	18 nM	35%	>180 min
CCCCc1cn(CCC2=CCCC2)c(=O)n1Cc1ccc(-c2ccccc2-c2nnn[nH]2)nc1 [Compound 212]	23 nM	15%	180 min
CCCCc1cn(-c2ccccc2Cl)c(=O)n1Cc1ccc(-c2ccccc2-c2nnn[nH]2)nc1 [Compound 216]	5.4 nM	50%	>180 min
CCCCc1cn(-c2ccccc2C)c(=O)n1Cc1ccc(-c2ccccc2-c2nnn[nH]2)nc1 [Compound 217]	9.4 nM	65%	>180 min
CCCCc1cn(-c2c(F)cccc2F)c(=O)n1Cc1ccc(-c2ccccc2-c2nnn[nH]2)nc1 [Compound 220]	7 nM	75%	120 min
CCCCc1cn(CCCC)c(=O)n1Cc1ccc(-c2ccccc2-c2nnn[nH]2)cn1 [Compound 223]	14 nM	20%	>180 min
CCCCc1cn(-c2ccccc2C(C)(C)C)c(=O)n1Cc1ccc(-c2ccccc2-c2nnn[nH]2)nc1 [Compound 229]	19 nM	40%	>180 min
CCCCc1nc(CC(C)(C)C)n(Cc2ccc(-c3ccccc3-c3nnn[nH]3)nc2)n1 [Compound 250]	43 nM	0%	
CCCCc1nc(-c2ccccc2Cl)nn1Cc1ccc(-c2ccccc2-c2nnn[nH]2)nc1 [Compound 267]	25 nM	25%	>180 min
CCCCc1nc(-c2ccccc2Cl)n(Cc2ccc(-c3ccccc3-c3nnn[nH]3)nc2)n1 [Compound 268]	520 nM	0%	
CCCCc1cn(-c2ccccc2CC)c(=O)n1Cc1ccc(-c2ccccc2-c2nnn[nH]2)cc1 [Compound 271]	14 nM	20%	
CCCCc1cn(-c2ccccc2C(C)C)c(=O)n1Cc1ccc(-c2ccccc2-c2nnn[nH]2)cc1 [Compound 272]	97 nM	70%	>180 min

Compounds with a lower IC50 [1], results first:

IC50 [1]	SMILES	inhibition at 3 mg/kg [2]	Assay C Duration [2]
5 nM	CCCCc1cn(CCc2cccs2)c(=O)n1Cc1ccc(-c2ccccc2-c2nnn[nH]2)nc1 [Compound 209]	25%	>180 min
5 nM	CCCCc1cn(-c2c(CC)cccc2CC)c(=O)n1Cc1ccc(-c2ccccc2-c2nnn[nH]2)nc1 [Compound 234]	20%	
4.9 nM	CCCCc1cn([C@H]2[C@H](C)CCC[C@@H]2C)c(=O)n1Cc1ccc(-c2ccccc2-c2nnn[nH]2)nc1 [Compound 236]	70%	>180 min
4.8 nM	CCCCc1cn(-c2c(Cl)cccc2Cl)c(=O)n1Cc1ccc(-c2ccccc2-c2nnn[nH]2)nc1 [Compound 221]	25%	>180 min
4.5 nM	CCCCc1cn(-c2ccccc2CC)c(=O)n1Cc1ccc(-c2ccccc2-c2nnn[nH]2)nc1 [Compound 228]	80%	>180 min
4.4 nM	CCCCc1cn(-c2c(C)cc(C)cc2C)c(=O)n1Cc1ccc(-c2ccccc2-c2nnn[nH]2)nc1 [Compound 232]	70%	>180 min
4.4 nM	CCCCc1nc(CC(C)(C)C)nn1Cc1ccc(-c2ccccc2-c2nnn[nH]2)nc1 [Compound 249]	20%	>180 min
4.1 nM	CCCCc1nc(C(=O)N(C)C(C)(C)C)n(Cc2ccc(-c3ccccc3-c3nnn[nH]3)nc2)n1 [Compound 256]	30%	>180 min
3.6 nM	CCCCc1cn(CCc2ccccc2)c(=O)n1Cc1ccc(-c2ccccc2-c2nnn[nH]2)nc1 [Compound 210]	15%	180 min
3.6 nM	CCCCc1cn(-c2c(C)cccc2Cl)c(=O)n1Cc1ccc(-c2ccccc2-c2nnn[nH]2)nc1 [Compound 231]	75%	>180 min
2.6 nM	CCCCc1cn(-c2c(OC)cccc2OC)c(=O)n1Cc1ccc(-c2ccccc2-c2nnn[nH]2)nc1 [Compound 230]	25%	>180 min
1.7 nM	CCCCc1cn(-c2cccn2CC)c(=O)n1Cc1ccc(-c2ccccc2-c2nnn[nH]2)nc1 [Compound 238]	15%	>180 min
